We go through 12 molecules from patent publication US6054441A, “Oxypurine nucleosides and their congeners, and acyl derivatives thereof, for improvement of hematopoiesis” (priority 1995, dated 2000).

Experiment [1] concerns human myeloid leukemia cell line (HL-60). To be noted: cited from earlier work; for conversion of immature blast cells into mature granulocytes: HL-60 in vitro; for effect on induced maturation of HL-60 cells: HL-60 with inducing agents.
Experiment [2] deals with hematopoiesis in normal mice. Briefly: Hematopoiesis in normal mice (Example 44). It counts as in vivo, Balb/C mice. The procedure:
Normal, otherwise untreated, female Balb/C mice weighing approximately 20 grams each received a total of 4 or 9 0.4 ml intraperitoneal injections (one per day) of either Tween-80 (0.2%) (controls), palmitoylguanosine (2.5 μmoles/mouse/day), or palmitoyldeoxyinosine (2.5 μmoles/mouse/day). Twenty-four hours after the 4th or 9th treatment, groups of 5 or 6 animals from each of the 3 groups were bled and then sacrificed by cervical dislocation. Spleens were removed and weighed, and complete blood cell counts performed.

For experiment [3], the system named is hematopoietic recovery after cyclophosphamide. Briefly: Hematopoietic recovery after cyclophosphamide (Example 48). The format is in vivo, Balb/C mice. How it is done:
Cyclophosphamide (CP) (275 mg/kg, i.p.) was administered to 36 Balb/C female mice weighing approximately 20 grams each. Twenty four hours later and each day thereafter for a total of 4 or 6 days, mice were given a 0.4 ml i.p. injection of either physiological saline (controls), palmitoyldeoxyinosine (2.5 μmoles/mouse), or palmitoylxanthosine (2.5 μmoles/mouse). On days 5 and 7 following CP administration 6 of the 12 animals in each of the 3 groups were bled and then sacrificed by cervical dislocation. Spleens were removed and weighed, and complete blood cell counts performed.

For experiment [4] the test system is unchanged. Briefly: Hematopoietic recovery after cyclophosphamide (Example 50). The note with it: day 5; 2 μmoles/mouse. The format is in vivo, Balb/C mice. The procedure:
Cyclophosphamide (CP) (275 mg/kg, i.p.) was administered to 96 Balb/C female mice weighing approximately 20 grams each. Twenty-four hours later and each day thereafter mice were given a 0.4 ml i.p. injection of either Tween-80 (0.2%) (controls), palmitoyldeoxyguanosine (2 μmoles/mouse), palmitoyldeoxyinosine (2 μmoles/mouse), palmitoylacyclovir (2 μmoles/mouse), palmitoylarabinosylguanine (2 μmoles/mouse), palmitoylarabinosylhypoxanthine (2 μmoles/mouse), monopalmitoylguanosine 2',3'-acyclic dialcohol (2 μmoles/mouse), and palmitoyl-8-thioguanosine (2 μmoles/mouse). On days 5 and 7 following CP administration 6 animals in each of the 8 groups were bled and then sacrificed by cervical dislocation. Spleens were removed and weighed, and complete blood cell counts performed.

Experiment [5] has the same test system. Briefly: Hematopoietic recovery after cyclophosphamide (Example 37). The format is in vivo, Balb/C mice. To be noted: 5 μmoles/mouse/day i.p. 6 days; day 7; vs saline. How it is done:
Twenty-four hours later and each day thereafter for a total of 6 days, mice were given a 0.4 ml i.p. injection of either physiological saline (controls), guanine (5 μmoles/mouse/day), or guanosine (5 μmoles/mouse/day). On day 7 all 10 mice in each of the three groups were bled, and then sacrificed by cervical dislocation. Spleens were removed and weighed, and complete blood cell counts performed.

Experiment [6] relates to mouse bone marrow cells. The note with it: cited from earlier work.
For experiment [7], the system named is hematopoietic recovery after cyclophosphamide. Briefly: Hematopoietic recovery after cyclophosphamide (Example 64). The note with it: day 7. The format is in vivo, Balb/C mice. The procedure: (§1) Fourteen female Balb/C mice weighing approximately 20 grams each received a 0.4 ml i.p. injection of either N-isobutyryldeoxyguanosine (50 mg/kg/treatment) in a Tween vehicle (0.2% Tween-80 in saline) or vehicle alone one time daily for five days following a single injection of cyclophosphamide (CP) (250 mg/kg, i.p.). On day 7 following CP administration all fourteen animals were bled and then sacrificed by cervical dislocation. Spleens were removed and weighed, and complete blood cell counts performed.

The test system is the same in experiment [8]. Put plainly: Hematopoietic recovery after cyclophosphamide, acyl chain length (Example 38). The format is in vivo, Balb/C mice. The note with it: day 7; guanosine 5, acyl derivatives 2.5 μmoles/mouse/day i.p. How it is done: Cyclophosphamide (CP) (275 mg/kg, i.p.) was administered to 70 Balb/C female mice weighing approximately 20 grams each. Twenty-four hours later and each day thereafter for a total of 6 days, mice were given a 0.4 ml i.p injection of either physiological saline (controls), Tween 80 (0.2%), guanosine (5 μmoles/mouse/day in 0.2% Tween 80), or 2.5 μmoles per mouse per day of one of the following acylated derivatives of guanosine in 0.2% Tween 80: triacetylguanosine, octanoylguanosine, lauroylguanosine, or palmitoylguanosine. On day 7 following CP administration all 10 animals from each of the 7 groups were bled, and then sacrificed by cervical dislocation. Spleens were removed and weighed, and complete blood counts performed.

In experiment [9] the test system is Interleukin-3 dependent bone marrow cells. The note with it: 10 micrograms per milliliter.
Protocol: (§2) Bone marrow cells were obtained by flushing the femurs of three male B6D2F1 mice. The cells were plated at 5.0×10^5 /ml in MEM plus 10% fetal calf serum and 25 Units/ml of recombinant IL-3 for 24-48 hours. Non-adherent cells were then separated from adherent cells and maintained for an additional twelve days. IL-3 was washed from cells, and cells were plated in MEM plus 10% fetal calf serum in the presence or absence of IL-3 and with or without the addition of palmitoyldeoxyguanosine (10 micrograms per milliliter) or deoxyguanosine (10 micrograms per milliliter). Cells were counted using the trypan blue exclusion method, and the percent of dead cells (trypan blue positive) was determined at 24, 40, 60 and 84 hours following the wash.
For experiment [10] the test system is unchanged. Briefly: cells. To be noted: Mus musculus, Bone marrow cell, read-out: % Dead Cells.
Protocol: as §2
The test system of experiment [11] is blood cell counts after cyclophosphamide. Put plainly: Recovery after cyclophosphamide (Example 61). The format is in vivo, Balb/C mice. The note with it: 7 days after CP. How it is done: as §1, with “Twelve” for “Fourteen”, “N-palmitoylguanine (25” for “N-isobutyryldeoxyguanosine (50”, “Tween-DMSO” for “Tween”, “Tween-80 and 7.5% DMSO” for “Tween-80”, “twelve of these” for “fourteen”, “dislocation. Six untreated mice were also bled and sacrificed to provide data on normal (basal) values.” for “dislocation.”

Experiment [12] has as its system blood cell counts after 5-FU. Briefly: Pretreatment, recovery after 5-fluorouracil (Example 60). It counts as in vivo, Balb/C mice. To be noted: 7 days after 5-FU. The procedure:
Twelve female Balb/C mice weighing approximately 20 grams each received a 0.4 ml i.p. injection of either N-palmitoylguanine (25 mg/kg/treatment) in a Tween-DMSO vehicle (0.2% Tween-80 and 7.5% DMSO in saline) or vehicle alone one time daily for three days. On the fourth day 5-fluorouracil (5-FU; 150 mg/kg, i.p.) was administered to all twelve animals. On day 7 following 5-FU administration all twelve of these animals were bled and then sacrificed by cervical dislocation. Six untreated mice were also bled and sacrificed to provide data on normal (basal) values. Spleens were removed and weighed, and complete blood cell counts performed.

[13] abbreviates: in presence of post-endotoxin serum.

Where two headings read alike, the source gives them in different places.

For the molecule `CN(C)C=O` [dimethylformamide, reference compound], the “conversion of immature blast cells into mature granulocytes” value (“conversion” below) in experiment [1] was “induced”.
In the case of `CC1=C(/C=C/C(C)=C/C=C/C(C)=C/C(=O)O)C(C)(C)CCC1` [retinoic acid, reference compound], the “conversion” value in experiment [1] is listed as “induced”.
Turning to `CCCCCCCCCCCCCCCC(=O)OC[C@H]1O[C@@H](n2cnc3c(=O)[nH]cnc32)C[C@@H]1O`, the spleen weight result is “significantly greater” in experiment [2] (day 5, 2.5 μmoles/mouse/day i.p.); “significantly greater” in experiment [2] (day 10, vs Tween 80); “significantly elevated” in [3] (day 5, 2.5 μmoles/mouse, vs controls); “significantly increased” in experiment [3] (day 7, vs controls); “significantly elevated” in [4]. The neutrophil counts entry is recorded as “significantly greater” in experiment [2] (day 10, vs Tween 80); “significantly elevated” in experiment [3] (day 5, vs controls); “significantly elevated” in experiment [3] (day 5, vs palmitoylxanthosine). For the same molecule, the total leukocyte counts entry in experiment [2] (day 10, vs Tween 80) is listed as “significantly greater”; in experiment [3] (day 5, vs controls), “significantly elevated”; in [3] (day 5, vs palmitoylxanthosine) it was “significantly elevated”. Besides, the Neutrophils entry in experiment [3] (day 7, vs controls) is reported as “significantly increased”. The total leukocytes entry in experiment [3] (day 7, vs controls) was “significantly increased”.
With `NC(=O)c1csc([C@@H]2O[C@H](CO)[C@@H](O)[C@H]2O)n1` [tiazofurin, reference compound], the “conversion” value in experiment [1] is “induced”.
With `Nc1nc2nc[nH]c2c(=O)[nH]1` [guanine], in experiment [5], the Neutrophils result was “significantly more”, the spleen weight entry was “significantly heavier spleens” and the “total white blood cells” value was “significantly more”. Also, the “effect on induced maturation of HL-60 cells” value in experiment [1] is “prevented their induced maturation into functional neutrophils”.
For `Nc1nc2c(ncn2[C@@H]2O[C@H](COP(=O)(O)O)[C@@H](O)[C@H]2O)c(=O)[nH]1` [5'-guanosine monophosphate], in experiment [6] (setting [13]), the “number of colonies formed” value is “inactive”.
For the molecule `CC(C)C(=O)Nc1nc2c(ncn2[C@H]2C[C@H](O)[C@@H](CO)O2)c(=O)[nH]1` [N-isobutyryldeoxyguanosine], the spleen weight in experiment [7] (50 mg/kg/treatment, control 72.7±2.7, p<.001, in mg (unit assumed)) is recorded as 116.3±8.0. This molecule also gave a lymphocyte counts in experiment [7] (control 1.2±0.2, p<.02) of 2.1±0.2. Further, the total neutrophil counts in experiment [7] (control 3.3±0.4, p<.001) was determined as 6.6±0.5. Further, the “white blood cell counts” value in [7] (control 4.6±0.5, p<.001) stood at 8.9±0.5.
Turning to `Nc1nc2c(ncn2[C@@H]2O[C@@H]3COP(=O)(O)O[C@H]3[C@H]2O)c(=O)[nH]1` [cGMP, 3',5'-cyclic guanosine monophosphate], the “number of colonies formed” value is reported as “no effect” in experiment [6] (in absence of post-endotoxin serum) and “increase in the number of colonies formed” in experiment [6] (setting [13]).
As for `CCCCCCCCCCCC(=O)OC[C@H]1O[C@@H](n2cnc3c(=O)[nH]c(N)nc32)[C@H](O)[C@@H]1O` [laurolyguanosine, Lauroylguanosine], the spleen weight result in experiment [8] is reported as “significantly larger spleens”.
Consider `Nc1nc2c(ncn2[C@H]2C[C@H](O)[C@@H](CO)O2)c(=O)[nH]1` [dG, deoxyguanosine], for which the “prevention of apoptotic cell death due to IL-3 deprivation” value in experiment [9] is “did nothing to prevent apoptotic cell death due to IL-3 deprivation”. The cytotoxicity at 10 µg/mL in experiment [10] (24 h) amounted to 15.5 ± 0.5%; in experiment [10] (40 h) it was 21.5 ± 3.5%; in experiment [10] (60 h), 46.3 ± 10.3%; in [10] (84 h) it was 68.3 ± 6%.
In the case of `OC[C@H]1O[C@@H](n2cnc3c(O)ncnc32)[C@H](O)[C@@H]1O` [inosine], the “effect on induced maturation of HL-60 cells” value in experiment [1] is “no effect on induced maturation”.
Regarding `CCCCCCCCCCCCCCCC(=O)Nc1nc2nc[nH]c2c(=O)[nH]1` [NPG, N^2 -Palmitoylguanine], in experiment [11] (25 mg/kg/treatment), the Neutrophils is recorded as 5.5 ± .5 K/μl, the Platelets stood at 774 ± 734 K/μl and the WBC is on record as 7.3 ± .6 K/μl. In experiment [11] (25 mg/kg/treatment i.p., 5 days), the Spleen is 145 ± 13 mg. In experiment [12] (25 mg/kg/treatment), the Lymphocytes is 4.5 ± .5 K/μl, the Platelets was determined as 787 ± 72 K/μl and the WBC is 4.6 ± .5 K/μl. In experiment [12] (25 mg/kg/treatment i.p., 3 days before), the Spleen was determined as 79 ± 3 mg.
